Measurements reported in BigSolDB 2.1.

CCC[C@@H]1C[C@@H](C(=O)N[C@@H]([C@H]2O[C@H](SC)[C@H](O)[C@H]3OC(C)(C)O[C@H]32)[C@H](C)Cl)N(C)C1
solubility (mole fraction)
Conditions	273.15 K	278.15 K	283.15 K	288.15 K	293.15 K	298.15 K	303.15 K	308.15 K	313.15 K
in acetone	0.0112	0.0132	0.0164	0.0195	0.024	0.0283	0.0348	0.0425	0.0502
in acetonitrile	0.0032	0.004	0.005	0.0063	0.0078	0.0098	0.0123	0.0153	0.0189
in ethanol	0.0146	0.0179	0.0208	0.0243	0.0292	0.0352	0.0423	0.0506	0.0594
in ethyl acetate	0.0075	0.0093	0.0114	0.0143	0.0175	0.0215	0.026	0.0319	0.0388
in isobutanol	0.0139	0.0175	0.022	0.0274	0.0334	0.0409	0.0491	0.0584	0.0696
in isopropanol	0.0102	0.0124	0.0149	0.018	0.022	0.0266	0.0324	0.0393	0.0468
in methanol	0.0212	0.0255	0.0306	0.0351	0.0408	0.0481	0.0554	0.0651	0.0746
in methyl acetate	0.0087	0.0102	0.0132	0.0162	0.0198	0.024	0.0293	0.0355	0.042
in n-butanol	0.0166	0.0213	0.0272	0.0325	0.0391	0.0478	0.0571	0.0672	0.0794
in n-propanol	0.015	0.0189	0.0238	0.0294	0.0363	0.0428	0.0529	0.0637	0.0751
in n-propyl acetate	0.0065	0.008	0.0106	0.0124	0.0152	0.0183	0.0223	0.0283	0.0347
in sec-butanol	0.0229	0.0282	0.0344	0.0413	0.0507	0.0597	0.0709	0.0813	0.0947
